What follows are molecules tested against T1, human ACC2 (Homo sapiens, UniProt O00763) (assay: ACC2 assay, spectrophotometric 384 well assay (NADH-linked, coupled lactate dehydrogenase/pyruvate kinase)). Settings: hACC2 construct lacking the 128 N-terminal amino acids; 25° C., 340 nm, 15 minutes.
T1 construct: made in house; host or cells: insect cells, baculoviral expression system
Format: biochemical
Description: Spectrophotometric 384 Well Assay
Malonyl CoA formation by acetyl CoA carboxylases is stoichometrically linked to the consumption of ATP. ACC2 activity is measured in a NADH-linked kinetic method measuring ADP generated during the ACC reaction using a coupled lactate dehydrogenase/pyruvate kinase reaction.
For biological testing, a human ACC2 construct which lacks the 128 amino acids at the N-terminus for increased solubility (nt 385-6966 in Genbank entry AJ575592) is cloned. The protein is then expressed in insect cells using a baculoviral expression system. Protein purification is performed by anion exchange.
All compounds are dissolved in dimethyl sulfoxide (DMSO) to a concentration of 10 mM.
Assay reactions are then carried out in 384-well plates, with hACC2 in an appropriate dilution and at final assay concentrations (f.c.) of 100 mM Tris (pH 7.5), 10 mM trisodium citrate, 25 mM KHCO3, 10 mM MgCl2, 0.5 mg/mL BSA, 3.75 mM reduced L-glutathione, 15 U/mL lactate dehydrogenase, 0.5 mM phosphoenolpyruvate, 15 U/mL pyruvate kinase, compounds at different concentrations at final DMSO concentrations of 1%.
The enzymatic reaction is then started by addition of a mixture of NADH, acetyl Coenzyme A (both 200 μM f.c.) and ATP (500 uM f.c.). The decrease of the optical density (slope S) is then determined at 25° C. at a wavelength of 340 nm over 15 minutes in a spectrophotometric reader.
Each assay microtiter plate contains wells with vehicle instead of compound as controls for the non-inhibited enzyme (100% CTL; ‘HIGH’) and wells without acetyl-CoA as controls for non-specific NADH degradation (0% CTL; ‘LOW’). The slope S is used for calculation of % CTL=(S(compound)−S(‘LOW’))/(S(‘HIGH’)—S(‘LOW’))*100. Compounds will give values between 100% CTL (no inhibition) and 0% CTL (complete inhibition).
For IC50 value determination, the sample slope in the presence of the test compound after subtraction of the low controls (S(compound)−S(‘LOW’)) are used.
An IC50 value is derived from the compound slopes at different dosages after subtraction of the low controls (S(compound)−S(‘LOW’)) by non-linear regression curve fitting (equation y=(A+((B−A)/(1+((C/x)^D))))).

T1 sequence (O00763 129-2458 limits assumed): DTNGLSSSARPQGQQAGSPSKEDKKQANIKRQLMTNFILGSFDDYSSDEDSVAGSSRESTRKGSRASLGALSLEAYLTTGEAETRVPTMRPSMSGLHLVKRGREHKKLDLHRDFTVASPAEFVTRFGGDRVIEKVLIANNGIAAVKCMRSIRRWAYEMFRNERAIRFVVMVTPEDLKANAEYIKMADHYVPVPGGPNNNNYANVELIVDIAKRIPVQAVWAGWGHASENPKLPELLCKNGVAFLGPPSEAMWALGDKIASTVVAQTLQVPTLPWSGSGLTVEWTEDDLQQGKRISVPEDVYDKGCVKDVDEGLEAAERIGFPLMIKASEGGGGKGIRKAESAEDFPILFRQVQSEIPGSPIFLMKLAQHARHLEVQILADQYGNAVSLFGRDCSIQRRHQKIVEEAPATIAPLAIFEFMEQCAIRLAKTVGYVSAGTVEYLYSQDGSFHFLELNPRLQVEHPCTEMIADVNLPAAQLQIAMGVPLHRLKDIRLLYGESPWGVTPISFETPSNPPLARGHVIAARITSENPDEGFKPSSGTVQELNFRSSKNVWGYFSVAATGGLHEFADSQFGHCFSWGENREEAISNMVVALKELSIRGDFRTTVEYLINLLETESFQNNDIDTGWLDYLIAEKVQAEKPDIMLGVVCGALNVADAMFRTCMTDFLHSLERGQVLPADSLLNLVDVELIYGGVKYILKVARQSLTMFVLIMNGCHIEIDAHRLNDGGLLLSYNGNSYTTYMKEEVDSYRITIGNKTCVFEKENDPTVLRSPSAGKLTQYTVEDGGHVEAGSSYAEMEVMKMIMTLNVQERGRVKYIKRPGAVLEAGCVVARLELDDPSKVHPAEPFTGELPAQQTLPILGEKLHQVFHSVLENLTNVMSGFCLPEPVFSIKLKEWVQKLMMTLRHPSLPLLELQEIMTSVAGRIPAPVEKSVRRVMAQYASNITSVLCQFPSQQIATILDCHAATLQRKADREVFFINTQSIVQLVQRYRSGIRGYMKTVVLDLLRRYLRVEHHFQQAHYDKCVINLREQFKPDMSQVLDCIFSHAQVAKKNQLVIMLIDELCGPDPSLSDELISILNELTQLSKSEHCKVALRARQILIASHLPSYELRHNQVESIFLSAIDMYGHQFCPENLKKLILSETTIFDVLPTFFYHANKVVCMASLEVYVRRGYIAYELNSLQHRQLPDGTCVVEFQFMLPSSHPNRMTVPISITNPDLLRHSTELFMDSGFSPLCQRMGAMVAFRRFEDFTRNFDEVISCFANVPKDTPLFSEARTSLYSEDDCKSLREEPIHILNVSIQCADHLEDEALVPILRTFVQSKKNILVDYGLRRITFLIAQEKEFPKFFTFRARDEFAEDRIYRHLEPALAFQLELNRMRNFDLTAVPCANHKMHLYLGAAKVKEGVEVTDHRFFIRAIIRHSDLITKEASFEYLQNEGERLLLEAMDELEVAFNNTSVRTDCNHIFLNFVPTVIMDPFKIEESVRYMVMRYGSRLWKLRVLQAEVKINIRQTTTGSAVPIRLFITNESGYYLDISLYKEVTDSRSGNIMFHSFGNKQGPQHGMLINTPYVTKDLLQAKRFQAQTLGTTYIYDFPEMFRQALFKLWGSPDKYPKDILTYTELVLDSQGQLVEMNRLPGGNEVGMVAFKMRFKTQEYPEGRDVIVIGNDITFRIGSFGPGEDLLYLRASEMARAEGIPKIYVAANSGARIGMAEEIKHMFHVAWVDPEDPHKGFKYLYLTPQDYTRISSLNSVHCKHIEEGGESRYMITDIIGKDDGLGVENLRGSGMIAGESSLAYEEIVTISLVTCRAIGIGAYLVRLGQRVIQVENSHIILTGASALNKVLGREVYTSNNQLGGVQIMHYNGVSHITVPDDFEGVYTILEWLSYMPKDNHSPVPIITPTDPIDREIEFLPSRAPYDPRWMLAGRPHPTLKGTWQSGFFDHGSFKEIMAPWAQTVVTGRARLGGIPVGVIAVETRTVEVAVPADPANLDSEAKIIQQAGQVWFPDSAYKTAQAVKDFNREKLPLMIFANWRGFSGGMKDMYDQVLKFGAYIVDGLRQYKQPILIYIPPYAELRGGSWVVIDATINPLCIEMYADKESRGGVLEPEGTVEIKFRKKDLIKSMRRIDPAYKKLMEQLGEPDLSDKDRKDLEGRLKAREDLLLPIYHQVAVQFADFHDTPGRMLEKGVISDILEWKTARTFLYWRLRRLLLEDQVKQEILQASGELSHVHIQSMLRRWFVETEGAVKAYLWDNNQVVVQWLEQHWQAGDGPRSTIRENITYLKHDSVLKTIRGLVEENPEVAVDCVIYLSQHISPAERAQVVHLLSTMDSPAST

| Compound | IC50 [nM] |
| --- | --- |
| CCOc1ccc(C#Cc2ccc(C(C)C(=O)Nc3nncs3)cc2)cc1 (stereo not drawn) [Example 6.23] | 23100 |
| CCOc1ccc(C#Cc2ccc(CC(=O)NC)cc2)cc1 [Example 1.6] | 5400 |
| CCNC(=O)C(C)c1ccc(C#Cc2cnc(OC3CCC3)nc2)cc1 (stereo not drawn) [Example 3.2] | 400 |
| CCNC(=O)C(C)c1ccc(C#Cc2ccc(OC(C)C)cc2)cc1 (stereo not drawn) [Example 7.24] | 260 |
| CCOc1ccc(C#Cc2ccc(C(C)C(N)=O)cc2)cc1 (stereo not drawn) [Example 1.9] | 220 |
| CCNC(=O)C(C)c1ccc(C#Cc2cnc(NC3CCCC3)nc2)cc1 (stereo not drawn) [Example 2.3] | 710 |
| CCOc1ccc(C#Cc2ccc(C(C)C(=O)NC3CCOC3)cc2)cc1 (stereo not drawn) [Example 6.9] | 1800 |
| CCOc1ccc(C#Cc2ccc(C(C)C(=O)NC3COC3)cc2)cc1 (stereo not drawn) [Example 6.8] | 620 |
| CCOc1ccc(C#Cc2ccc(CC(=O)NC3CC3)cc2)cc1 [Example 1.23] | 1000 |
| CCNC(=O)C(C)c1ccc(C#Cc2ccc(OCC3CC3)cc2)cc1 (stereo not drawn) [Example 7.4] | 150 |
| CCNC(=O)C(C)c1ccc(C#Cc2ccc(OCC3CCOCC3)cc2)cc1 (stereo not drawn) [Example 5.13] | 890 |
| CCNC(=O)C(C)c1ccc(C#Cc2ccc(OCC)nc2)cc1 (stereo not drawn) [Example 7.23] | 560 |
| CCCOc1ccc(C#Cc2ccc(C(C)C(=O)NCC)cc2)c(C#N)c1 (stereo not drawn) [Example 7.39] | 1200 |
| CCOc1ccc(C#Cc2ccc(CC(C)C(=O)NC3CC3)cc2)cc1 (stereo not drawn) [Example 1.25] | 730 |
| CCNC(=O)C(C)c1ccc(C#Cc2ccc3cccnc3c2)cc1 (stereo not drawn) [Example 7.8] | 2500 |
| CCOc1ccc(C#Cc2ccc(C(C)C(=O)Nc3ccncc3)cc2)cc1 (stereo not drawn) [Example 6.13] | 400 |
| CCOc1ccc(C#Cc2ccc(C(C)C(=O)NCc3cnco3)cc2)cc1 (stereo not drawn) [Example 6.24] | 1800 |

Further molecules by falling IC50, results first:

| IC50 [nM] | Compound |
| --- | --- |
| 13200 | CCOc1ccc(C#Cc2ccc(C(C)C(=O)NC(C)C)cc2)cc1 (stereo not drawn) [Example 1.20] |
| 3300 | CCOc1ccc(C#Cc2ccc(C(C)C(=O)Nc3ncco3)cc2)cc1 (stereo not drawn) [Example 6.7] |
| 2700 | CCNC(=O)C(C)c1ccc(C#Cc2ccc(OCC3(C)COC3)cc2)cc1 (stereo not drawn) [Example 5.15] |
| 2300 | CCNC(=O)C(C)c1ccc(C#Cc2cnc(N3CCC4(CC4)C3)nc2)cc1 (stereo not drawn) [Example 2.10] |
| 1100 | CCNC(=O)C(C)c1ccc(C#Cc2ccc(OCCOCC)cc2)cc1 (stereo not drawn) [Example 5.4] |
| 600 | CCCOc1ccc(C#Cc2ccc(C(C)(C)C(=O)NC3CC3)cc2)cc1 [Example 1.14] |
| 530 | CCOc1ccc(C#Cc2ccc(C(C)C(=O)NCC(N)=O)cc2)cc1 (stereo not drawn) [Example 1.10] |
| 410 | CCOc1ccc(C#Cc2ccc(C(C)C(=O)Nc3cccc(OC)n3)cc2)cc1 (stereo not drawn) [Example 6.4] |
| 240 | CCOc1ccc(C#Cc2ccc(C(C)C(=O)Nc3cccnc3)cc2)cc1 (stereo not drawn) [Example 6.14] |
| 140 | CCCOc1ccc(C#Cc2ccc(C(C)C(=O)NCC)cc2)c(Cl)c1 (stereo not drawn) [Example 7.40] |

From patent US8877754B2, “Compounds, pharmaceutical compositions and uses thereof” (Boehringer Ingelheim International GmbH, priority 2010, dated 2014)
